Measured values from patent US6337341B1 (priority 1996, dated 2002).

| melting point [°C] | SMILES |
| --- | --- |
| 70 | COC(=O)/C=C/c1snnc1C [Compound No. 338, methyl (E)-3-(4-methyl-1,2,3-thiadiazol-5-yl)-2-propenate] |
| 65 | CSc1nnc(-c2snnc2C)o1 |
| 124 | COC(=O)c1csc(-c2snnc2-c2ccccc2)n1 |
| 118 | Cc1nnsc1CS(=O)(=O)c1ccccc1 |
| 80 to 85 | COC(=O)/C=C\c1snnc1C [Compound No. 341, methyl (Z)-3-(4-methyl-1,2,3-thiadiazol-5-yl)-2-propenate] |
| 182 | Cc1nnsc1-c1nnc(S)o1 [Compound No. 102, 5-(5-mercapto-1,3,4-oxadiazol-2-yl)-4-methyl-1,2,3-thiadiazole] |
| > 250 | Cc1nnsc1CN.Cl [Compound No. 220, 5-aminomethyl-4-methyl-1,2,3-thiadiazole hydrochloride] |
